One assay has as its system 5-lipoxygenase. Description: LTB4 production by rabbit granulocytes stimulated in vitro by A 23187 (enzyme immunoassay). Type of assay: cell-based. The conditions noted are these: 10-^7 M. From the text:
(§1) The object of this study is to determine the effects of compounds of the invention on the lipoxygenase and cyclo-oxygenase activities of rabbit granulocytes stimulated in vitro by A 23187, by measuring the levels of PGE2 and LTB4 thus liberated by means of an enzyme immunoassay (EIA). The granulocytes are isolated from rabbit blood collected from the main artery of the ear according to the method described by Trush et al. (1978). They are suspended, at a density of 10^6 cells/cm^3, in a phosphate buffer (mM): NaCl: 137; KCl: 2.68; Na2 HPO4 : 8.1; KH2 PO4 : 1.47; CaCl2 : 0.9; MgCl2 : 0.5 The freshly obtained granulocytes are pre-incubated for a period of 15 minutes at 37° C. in the presence of the test products. The results are expressed as percentages of the positive control. The values are presented as the mean±s.e.m. of three measurements carried out on the same day, for the "screening" study, and of three measurements carried out on three different days for the IC50 study. The IC50 values and the Hill number values (Hn) are determined by modelling using the Hill equation.

In the next assay the test system is cyclo-oxygenase. As to the kind of experiment: PGE2 production by rabbit granulocytes stimulated in vitro by A 23187 (enzyme immunoassay). The class given is cell-based. Particulars: 10-^7 M.
Excerpt: as §1

Assay [1] deals with phorbol 12-myristate-13-acetate induced ear swelling. As to the kind of experiment: Acute cutaneous inflammation in mice (phorbol 12-myristate-13-acetate test). Type of assay: in vivo. The conditions noted are these: Mus musculus; topical on ears of mice 30 minutes before phorbol 12-myristate-13-acetate; swelling of the ear at 6 hours. On the procedure: In the following test, the measurements were carried out on groups of five mice. The tests on the groups of control mice are carried out at the same time as those on the groups of mice which have received the test compounds.
5 μg of phorbol 12-myristate-13-acetate in 20 μl of an ethanol/water mixture (8:2) are applied to the front and rear surfaces of the right ears of the mice, 30 minutes after the application in a similar manner of the test compounds or of the vehicle (2×20 μl at 5-minute intervals in absolute alcohol). The swelling of the ear is measured 6 hours later with the aid of a Dyer micrometer. That measurement is used as the inflammation index.

2 compounds from patent publication US5635516A, “(Thia) cycloalkyl[B]indole compounds as anti-inflammatory agents” (Adir et Compagnie, priority 1994, dated 1997) can be followed below.

Molecules are shown by their SMILES.

Broadly, the IC50 is the concentration needed to halve the response being measured. High values mean weaker potency in that assay, low ones greater potency in that assay.

As to `CCOC(=O)Cn1c2c(c3cc(OCc4ccc5ccccc5n4)ccc31)CCCCCC2` [Example 2], the “inhibition of the production of LTB4” value with 5-lipoxygenase is on record as “completely”. For the same compound, the “effect on the production of PGE2” value with cyclo-oxygenase is “without reducing”. Besides, the IC50 in assay [1] was determined as 20 µM.

Consider `O=C(O)Cn1c2c(c3cc(OCc4ccc5ccccc5n4)ccc31)CCCCCC2` [Example 4, 2-{3-[(QUINOL-2-YL)METHYLOXY]-5,6,7,8,9,10,11-HEPTAHYDRO-CYCLOOCT[b]INDOLE}ACETIC ACID], for which, in assay [1], the IC50 worked out at 15 µM.
